Source: patent publication US20230234941A1, “Salts of Compound and Pharmaceutical Compositions Containing the Same” (Shenzhen Forward Pharmaceuticals Co., Limited., priority 2020, published 2023)
Counter-ions that a name gives are not always drawn. Like-named read-outs stand apart in the source and are kept apart here.

Assay: Chemical and physical stability of the salts at the end of the preparation
Assay type: physicochemical
Source text: It is crucial for drug development whether the salts obtained as above have chemical and physical stability at the end of the preparation. The chemical and physical stability of the salts at the end of the preparation includes: […]

## C=CC(=O)Nc1cc(Nc2ncnc(-c3cn(C)c4ccccc34)n2)c(OC)cc1N(C)CCN(C)C [Example 14]
Listed as Y11526-25-FD13-1,4-dioxane
  chemical and physical stability at the end of the preparation: chemically and physically stable

## C=CC(=O)Nc1cc(Nc2ncnc(-c3cn(C)c4ccccc34)n2)c(OC)cc1N(C)CCN(C)C [Example 15]
Listed as Y11526-25-FD12-1,4-dioxane
  chemical and physical stability at the end of the preparation: chemically and physically stable

## C=CC(=O)Nc1cc(Nc2ncnc(-c3cn(C)c4ccccc34)n2)c(OC)cc1N(C)CCN(C)C [Example 16]
Listed as L-malate salt
  chemical and physical stability at the end of the preparation: chemically unstable
Listed as amorphous L-malate salt
  chemical and physical stability at the end of the preparation: at least chemically unstable

## C=CC(=O)Nc1cc(Nc2ncnc(-c3cn(C)c4ccccc34)n2)c(OC)cc1N(C)CCN(C)C [Example 17]
Listed as 1 eq. citrate salt
  chemical and physical stability at the end of the preparation: chemically unstable
Listed as amorphous 1 eq. citrate salt
  chemical and physical stability at the end of the preparation: at least chemically unstable

## C=CC(=O)Nc1cc(Nc2ncnc(-c3cn(C)c4ccccc34)n2)c(OC)cc1N(C)CCN(C)C [Example 18]
Listed as 1 eq. L-tartrate
  chemical and physical stability at the end of the preparation: chemically unstable
Listed as amorphous 1 eq. L-tartrate
  chemical and physical stability at the end of the preparation: chemically unstable
Listed as amorphous 1 eq. L-tartrate salt
  chemical and physical stability at the end of the preparation: at least chemically unstable

## C=CC(=O)Nc1cc(Nc2ncnc(-c3cn(C)c4ccccc34)n2)c(OC)cc1N(C)CCN(C)C [sulfosalicylate salt]
  chemical and physical stability at the end of the preparation: chemically and physically stable
Listed as amorphous sulfosalicylate salt
  chemical and physical stability at the end of the preparation: chemically and physically stable
